IC50 data for 16 molecules are collected here from patent US20090143361A1, “Pyrido[3,2-E]Pyrazines, Process For Preparing The Same, And Their Use As Inhibitors Of Phosphodiesterase 10” (ELBION GMBH, priority 2007, published 2009).

As a reminder, the pIC50 is −log10 of the IC50, conventionally taken in molar units.

Molecules are shown by their SMILES. pIC50: −log10 of the molar value.

For one assay, the target named is PDE10 from pig striatum (Sus scrofa, UniProt A0A287B941). Briefly: Inhibition of PDE10 from pig striatum ([3H]-cAMP SPA). The format is biochemical. The conditions noted are these: Table 7; read-out: PDE10 pig IC50. On the procedure:
Phosphodiesterase isoenzyme 10 (PDE10) activity was determined in preparations of human recombinant PDE10A and PDE10 from pig striatum, respectively.
Striatum from male hybrid pigs (150 kg) were collected and frozen at −70° C.
At the day of preparation 0.5 g striatum was homogenised in 10 ml 50 mM Tris/Mg-buffer at 4° C. and centrifuged for one hour at 100000 g. The supernatant was removed and the pellet was resuspended in the same buffer, but containing 1% Triton and incubated for 45 min at 4° C. The membrane fraction was applied onto a 5 ml Hi Trap™ QHP column at the Akta-FPLC. After washing the column the bound PDE protein was eluted with an increasing sodium chloride gradient (O mM-500 mM sodium chloride) in 50 mM Tris/Mg-buffer at 4° C. in the presence of 1% Triton. […] The fractions with PDE10-activity were pooled and frozen in aliquots until use at −20° C.
PDE10 activity was determined in a one step procedure in microtiterplates. […] Nonspecific activity was tested without the enzyme. The reaction was initiated by addition of the substrate solution and was carried out at 37° C. for 30 minutes. Enzymatic activity was stopped by addition of 25 μl YSi-SPA-beads (Amersham-Pharmacia). One hour later the mixture was measured in a liquid scintillation counter for microtiterplates (Microbeta Trilux). To pipette the incubation mixture a robot Biomek (Fa. Beckman) is used. […] For determination of IC50 values the Hill-plot, 2-parameter-model, was used.
The phosphodiesterase isoenzyme 10 (PDE10) activity was determined in preparations of rat, pig and guinea pig striatum respectively. Striatum from male Wistar rats (180-200 g), male hybrid pigs (150 kg) and male guinea pigs (CRL (HA), 500 g) respectively were collected and frozen at −70° C.
At the day of preparation 0.5 g striatum was homogenized in 10 ml 50 mM Tris/Mg-buffer at 4° C. and centrifuged for one hour at 100000 g. The supernatant is called the cytosolic fraction and was removed and stored on ice. The pellet was resuspended in the same buffer, but containing 1% Triton and incubated for 45 min at 4° C. Both fractions were independently applied onto a 5 ml Hi Trap™ QHP column at the Akta-FPLC. After washing the columns the bound PDE protein was eluted with an increasing sodium chloride gradient (0 mM-500 mM sodium chloride) in 50 mM Tris/Mg-buffer at 4° C. for the cytosolic fraction and in the presence of 1% Triton for the membrane fraction. […] The fractions with PDE10-activity were pooled and frozen in aliquots until use at −20° C.
PDE10 activity was determined in a one step procedure in microtiterplates. […] Nonspecific activity was tested without the enzyme. The reaction was initiated by addition of the substrate solution and was carried out at 37° C. for 30 minutes. Enzymatic activity was stopped by addition of 25 μl YSi-SPA beads (Amersham-Pharmacia). One hour later the mixture was measured in a liquid scintillation counter for microtiterplates (Microbeta Trilux). To pipette the incubation mixture a robot Biomek (Fa. Beckman) is used. […] For determination of IC50 values the Hill-plot, 2-parameter-model, was used.
Regarding `COc1ccc(-c2nc(C)c3c(C)nc4ccc(OC)nc4n23)cn1` [Example 28, 2-Methoxy-9-(6-methoxypyridin-3-yl)-6,7-dimethylimidazo[1,5-a]pyrido[3,2-e]pyrazine], the pIC50 is 7.00 to 8.00.

As for `COc1ccc2nc(C)c3c(C)nc(-c4cnccc4OC)n3c2n1` [Example 30, 2-Methoxy-9-(4-methoxypyridin-3-yl)-6,7-dimethylimidazo[1,5-a]pyrido[3,2-e]pyrazine], the pIC50 is 7.00 to 8.00. Same read-out and setting: with `COc1ccc2nc(C)c3c(C)nc(-c4cccc(F)c4)n3c2n1` [Example 5, 9-(3-Fluorophenyl)-2-methoxy-6,7-dimethylimidazo[1,5-a]pyrido[3,2-e]pyrazine] the figure was 7.00 to 8.00.

The same assay, now with this note: Table 8; read-out: PDE10 pig IC50.
For the molecule `COc1ccc2nc(C)c3c(C)nc(-c4cccc(Cl)c4C)n3c2n1` [Example 87, 9-(3-Chloro-2-methylphenyl)-2-methoxy-6,7-dimethylimidazo[1,5-a]pyrido[3,2-e]pyrazine], the negative-log IC50 (pIC50) is above 8.00.

Take `COc1ccc(-c2nc(C)c3c(C)nc4ccc(OC)nc4n23)cc1` [Example 55, 2-Methoxy-9-(4-methoxyphenyl)-6,7-dimethylimidazo[1,5-a]pyrido[3,2-e]pyrazine]: the pIC50 was 7.00 to 8.00. Still for that read-out and setting: the value for `COc1ccc2nc(C)c3c(C)nc(C#Cc4ccccc4Cl)n3c2n1` [Example 96, 9-[(2-Chlorophenyl)ethynyl]-2-methoxy-6,7-dimethylimidazo[1,5-a]pyrido[3,2-e]pyrazine] was 7.00 to 8.00; that for `COc1ccc2nc(C)c3c(C)nc(C#CC4CCCCC4)n3c2n1` [Example 95, 9-(Cyclohexylethynyl)-2-methoxy-6,7-dimethylimidazo[1,5-a]pyrido[3,2-e]pyrazine] was below 7.00. Take `COc1ccc2nc(C)c3c(C)nc(-c4ccccc4OC)n3c2n1` [Example 52, 2-Methoxy-9-(2-methoxyphenyl)-6,7-dimethylimidazo[1,5-a]pyrido[3,2-e]pyrazine]: the negative-log IC50 (pIC50) was 7.00 to 8.00. On the same count and under the same terms, the value for `COc1ccc2nc(C)c3c(C)nc(-c4cc(Cl)ccc4Cl)n3c2n1` [Example 47, 9-(2,5-Dichlorophenyl)-2-methoxy-6,7-dimethylimidazo[1,5-a]pyrido[3,2-e]pyrazine] was above 8.00. `COc1ccc2nc(N3CCC3)c3c(C)nc(CCC(F)(F)F)n3c2n1` [Example 43, 6-Azetidin-1-yl-2-methoxy-7-methyl-9-(3,3,3-trifluoropropyl)imidazo[1,5-a]pyrido[3,2-e]pyrazine]: the pIC50 is below 7.00.

In the case of `COc1ccc2nc(C)c3c(C)nc(-c4cccc(C(F)(F)F)c4)n3c2n1` [Example 66, 2-Methoxy-6,7-dimethyl-9-[3-(trifluoromethyl)phenyl]imidazo[1,5-a]pyrido[3,2-e]pyrazine], the negative-log IC50 (pIC50) is 7.00 to 8.00.

On to `COc1ccc2nc(C)c3c(C)nc(-c4cccc(C(=O)NC(C)C)c4)n3c2n1` [Example 103, N-Isopropyl-3-(2-methoxy-6,7-dimethylimidazo[1,5-a]pyrido[3,2-e]pyrazin-9-yl)benzamide], for which the pIC50 is 7.00 to 8.00. With `COc1ccc2nc(C)c3c(C)nc(-c4cccc(C(=O)N5CCCCC5)c4)n3c2n1` [Example 105, 2-Methoxy-6,7-dimethyl-9-[3-(piperidin-1-ylcarbonyl)phenyl]imidazo[1,5-a]pyrido[3,2-e]pyrazine], the negative-log IC50 (pIC50) is below 7.00. Turning to `COc1ccc2nc(C)c3c(C)nc(-c4ccc(Cl)cc4OC)n3c2n1` [Example 90, 9-(4-Chloro-2-methoxyphenyl)-2-methoxy-6,7-dimethylimidazo[1,5-a]pyrido[3,2-e]pyrazine], the negative logarithm of the IC50 (pIC50) is 7.00 to 8.00. On the same count and under the same terms, with `COc1ccc2nc(C)c3c(C)nc(-c4cscc4C)n3c2n1` [Example 69, 2-Methoxy-6,7-dimethyl-9-(4-methyl-3-thienyl)imidazo[1,5-a]pyrido[3,2-e]pyrazine] the figure was above 8.00. On to `COc1ccc2nc(C)c3c(C)nc(-c4cc(Cl)ccc4C)n3c2n1` [Example 79, 9-(5-Chloro-2-methylphenyl)-2-methoxy-6,7-dimethylimidazo[1,5-a]pyrido[3,2-e]pyrazine], for which the negative-log IC50 (pIC50) was above 8.00.
